{
  "source": "paper PMC8523698",
  "about": "“Preclinical characterization of an intravenous coronavirus 3CL protease inhibitor for the potential treatment of COVID19” (Nature Communications, 2021)",
  "tested_on": "HCoV-229E",
  "test": "Viral CPE assay in MRC-5 cells (CellTiter Glo)",
  "type": "cell-based",
  "note": "Values joined by “and” are separate entries in the source; they are usually repeats but may differ in a detail not shown here. Equal values may be shown once.",
  "data": [
    {"smiles": "COc1cccc2[nH]c(C(=O)N[C@@H](CC(C)C)C(=O)N[C@@H](C[C@@H]3CCNC3=O)C(=O)CO)cc12", "note": "[PF-00835231-00]", "values": [
      {"measurement": "% Well Effect", "setting": "0.000938825 uM, minus efflux inhibitor, EC50 run 17-Apr-2020", "value": "-3.33% and -1.20%"},
      {"measurement": "% Well Effect", "setting": "0.000938825 uM, minus efflux inhibitor, EC50 run 24-Apr-2020", "value": "15.19% and 11.15%"},
      {"measurement": "% Well Effect", "setting": "0.000949267 uM, minus efflux inhibitor, EC50 run 11-Apr-2020", "value": "5.04% and 4.22% and -1.30% and -1.77%"},
      {"measurement": "% Well Effect", "setting": "0.00297326 uM, minus efflux inhibitor, EC50 run 17-Apr-2020", "value": "-5.19% and 4.25%"},
      {"measurement": "% Well Effect", "setting": "0.00297326 uM, minus efflux inhibitor, EC50 run 24-Apr-2020", "value": "5.52% and -0.60%"},
      {"measurement": "% Well Effect", "setting": "0.00300158 uM, minus efflux inhibitor, EC50 run 11-Apr-2020", "value": "4.34% and 3.84% and 1.15% and -4.56%"},
      {"measurement": "% Well Effect", "setting": "0.007813 uM, minus efflux inhibitor, EC50 run 30-Apr-2020", "value": "0.98% and 0.83%"},
      {"measurement": "% Well Effect", "setting": "0.00941631 uM, minus efflux inhibitor, EC50 run 17-Apr-2020", "value": "1.75% and 4.31%"},
      {"measurement": "% Well Effect", "setting": "0.0298215 uM, minus efflux inhibitor, EC50 run 17-Apr-2020", "value": "23.90% and 29.75%"},
      {"measurement": "% Well Effect", "setting": "0.0298215 uM, minus efflux inhibitor, EC50 run 24-Apr-2020", "value": "-2.80% and 5.98%"},
      {"measurement": "% Well Effect", "setting": "0.0300105 uM, minus efflux inhibitor, EC50 run 11-Apr-2020", "value": "22.27% and 25.51% and 18.77% and 17.89%"},
      {"measurement": "% Well Effect", "setting": "0.03125 uM, minus efflux inhibitor, EC50 run 30-Apr-2020", "value": "10.60% and 5.67%"},
      {"measurement": "% Well Effect", "setting": "0.0625 uM, minus efflux inhibitor, EC50 run 30-Apr-2020", "value": "34.90% and 38.53%"},
      {"measurement": "% Well Effect", "setting": "0.0944446 uM, minus efflux inhibitor, EC50 run 17-Apr-2020", "value": "86.84% and 95.70%"},
      {"measurement": "% Well Effect", "setting": "0.0944446 uM, minus efflux inhibitor, EC50 run 24-Apr-2020", "value": "19.60% and 23.25%"},
      {"measurement": "% Well Effect", "setting": "0.0948933 uM, minus efflux inhibitor, EC50 run 11-Apr-2020", "value": "74.74% and 86.04% and 87.19% and 85.97%"},
      {"measurement": "% Well Effect", "setting": "0.09491 uM, minus efflux inhibitor, EC50 run 3-Apr-2020", "value": "60.58% and 66.48% and 51.57% and 67.27%"},
      {"measurement": "% Well Effect", "setting": "0.299106 uM, minus efflux inhibitor, EC50 run 17-Apr-2020", "value": "107.11% and 115.95%"},
      {"measurement": "% Well Effect", "setting": "0.299106 uM, minus efflux inhibitor, EC50 run 24-Apr-2020", "value": "59.17% and 71.11%"},
      {"measurement": "% Well Effect", "setting": "0.300053 uM, minus efflux inhibitor, EC50 run 11-Apr-2020", "value": "109.88% and 116.26% and 114.19% and 115.61%"},
      {"measurement": "% Well Effect", "setting": "0.300105 uM, minus efflux inhibitor, EC50 run 3-Apr-2020", "value": "99.66% and 103.56% and 105.08% and 101.55%"},
      {"measurement": "% Well Effect", "setting": "0.5 uM, minus efflux inhibitor, EC50 run 30-Apr-2020", "value": "102.45% and 101.06%"},
      {"measurement": "% Well Effect", "setting": "0.947269 uM, minus efflux inhibitor, EC50 run 17-Apr-2020", "value": "102.69% and 111.34%"},
      {"measurement": "% Well Effect", "setting": "0.947269 uM, minus efflux inhibitor, EC50 run 24-Apr-2020", "value": "73.36% and 89.87%"},
      {"measurement": "% Well Effect", "setting": "0.948767 uM, minus efflux inhibitor, EC50 run 11-Apr-2020", "value": "109.36% and 109.78% and 108.04% and 112.87%"},
      {"measurement": "% Well Effect", "setting": "0.948933 uM, minus efflux inhibitor, EC50 run 3-Apr-2020", "value": "100.40% and 104.08% and 100.39% and 101.88%"},
      {"measurement": "% Well Effect", "setting": "1 uM, minus efflux inhibitor, EC50 run 30-Apr-2020", "value": "105.73% and 102.25%"},
      {"measurement": "% Well Effect", "setting": "3 uM, minus efflux inhibitor, EC50 run 11-Apr-2020", "value": "107.90% and 109.07% and 108.64% and 109.54%"},
      {"measurement": "% Well Effect", "setting": "3 uM, minus efflux inhibitor, EC50 run 17-Apr-2020", "value": "101.53% and 109.98%"},
      {"measurement": "% Well Effect", "setting": "3 uM, minus efflux inhibitor, EC50 run 24-Apr-2020", "value": "75.89% and 83.80%"},
      {"measurement": "% Well Effect", "setting": "3 uM, plus 0.5 uM efflux inhibitor, EC50 run 22-may-2020", "value": 87.68, "unit": "%"},
      {"measurement": "% Well Effect", "setting": "3 uM, plus 0.5 uM efflux inhibitor, EC50 run 24-Apr-2020", "value": 59.97, "unit": "%"},
      {"measurement": "% Well Effect", "setting": "3.00053 uM, minus efflux inhibitor, EC50 run 3-Apr-2020", "value": "99.82% and 106.83% and 102.14% and 104.18%"},
      {"measurement": "% Well Effect", "setting": "9.48767 uM, minus efflux inhibitor, EC50 run 3-Apr-2020", "value": "101.96% and 104.70% and 102.25% and 105.36%"},
      {"measurement": "% Well Effect", "setting": "30 uM, minus efflux inhibitor, EC50 run 3-Apr-2020", "value": "102.99% and 107.66% and 105.96% and 105.84%"}
    ]}
  ]
}
